In the supplement of paper PMC10949913:

Experiments:
Conditions in all cases: 48 h
CU-ACC1 [1] = assay: AC50 viability; higher = less potent
Procedure, shortened: (§1)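 Three adrenocortical carcinoma cell lines were exposed for 48 h to library compounds at 11 concentrations in 1,536-well plates, then read by CellTiter-Glo luminescence. Signals were scaled per plate against vehicle and empty-well controls. From fitted concentration-response curves of inhibitory or non-responding classes alone, AC50 and area under the curve were obtained.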

CU-ACC2 [2] = assay: AC50 viability; higher = less potent
Procedure, shortened: as §1

NCI-H295R [3] = assay: AC50 viability; higher = less potent
Procedure, shortened: as §1

CU-ACC1 [4] = assay: area under concentration-response curve (viability) (AUC (a.u.)); higher = less active
Procedure, shortened: as §1

CU-ACC2 [5] = assay: as above
Procedure, shortened: as §1

NCI-H295R [6] = assay: as above
Procedure, shortened: as §1

CN1CCC(CNc2ccc3ncc(-c4cccc(OC(F)(F)F)c4)n3n2)CC1
AC50 viability (CU-ACC1 [1]): 7.42 µM
AC50 viability (CU-ACC2 [2]): 13.2 µM
AC50 viability (NCI-H295R [3]): 9.34 µM
area under concentration-response curve (CU-ACC1 [4]): 413
area under concentration-response curve (CU-ACC2 [5]): 460
area under concentration-response curve (NCI-H295R [6]): 416

CC1(C)OC/2=C(\[C@H](NCC3=CC=CC=C3)[C@@H]1O)C(=O)C4=CC=CC=C4C2=O
AC50 viability (CU-ACC1 [1]): 2.35 µM
AC50 viability (CU-ACC2 [2]): 18.6 µM
AC50 viability (NCI-H295R [3]): 1.86 µM
area under concentration-response curve (CU-ACC1 [4]): 381
area under concentration-response curve (CU-ACC2 [5]): 368
area under concentration-response curve (NCI-H295R [6]): 403

CCNC(=O)C#Cc1ccc2c(c1)NC(=O)/C2=C(\Nc1ccc(CN(C)C)cc1)c1ccccc1
AC50 viability (CU-ACC1 [1]): 0.91 µM
AC50 viability (CU-ACC2 [2]): 2.88 µM
AC50 viability (NCI-H295R [3]): 2.57 µM
area under concentration-response curve (CU-ACC1 [4]): 443
area under concentration-response curve (CU-ACC2 [5]): 536
area under concentration-response curve (NCI-H295R [6]): 524

NC1=C(Cl)C(=CC=N1)OC2=C(F)C=C(NC(=O)\C3=C\N\C=C(C3=O)\C4=CC=C(F)C=C4)C=C2
AC50 viability (CU-ACC1 [1]): 14.8 µM
AC50 viability (CU-ACC2 [2]): 16.6 µM
AC50 viability (NCI-H295R [3]): 13.2 µM
area under concentration-response curve (CU-ACC1 [4]): 437
area under concentration-response curve (CU-ACC2 [5]): 502
area under concentration-response curve (NCI-H295R [6]): 490

C=CC(=O)N1CC[C@@H](Oc2nc(Nc3ccc(N4CCC(N5CCN(C)CC5)CC4)cc3)c(C(N)=O)nc2CC)C1
AC50 viability (CU-ACC1 [1]): 8.11 µM
AC50 viability (CU-ACC2 [2]): 8.11 µM
AC50 viability (NCI-H295R [3]): 8.11 µM
area under concentration-response curve (CU-ACC1 [4]): 521
area under concentration-response curve (CU-ACC2 [5]): 559
area under concentration-response curve (NCI-H295R [6]): 529

CN(Cc1ccc(/C=C/C(=O)NO)cc1)CC12CC3CC(CC(C3)C1)C2
AC50 viability (CU-ACC1 [1]): 1.05 µM
AC50 viability (CU-ACC2 [2]): 1.05 µM
AC50 viability (NCI-H295R [3]): 1.66 µM
area under concentration-response curve (CU-ACC1 [4]): 303
area under concentration-response curve (CU-ACC2 [5]): 408
area under concentration-response curve (NCI-H295R [6]): 365

COc1cc2c(NC3CCN(C(C)C)CC3)nc(C3CCCCC3)nc2cc1OCCCN1CCCC1
AC50 viability (CU-ACC1 [1]): 11.8 µM
AC50 viability (CU-ACC2 [2]): 14.8 µM
AC50 viability (NCI-H295R [3]): 9.34 µM
area under concentration-response curve (CU-ACC1 [4]): 369
area under concentration-response curve (CU-ACC2 [5]): 350
area under concentration-response curve (NCI-H295R [6]): 404

C[S+](=O)([O-])N1CCC(NC(=O)c2[nH]ncc2NC(=O)c2c(Cl)cccc2Cl)CC1
AC50 viability (CU-ACC1 [1]): 7.42 µM
AC50 viability (CU-ACC2 [2]): 2.63 µM
AC50 viability (NCI-H295R [3]): 14.8 µM
area under concentration-response curve (CU-ACC1 [4]): 428
area under concentration-response curve (CU-ACC2 [5]): 488
area under concentration-response curve (NCI-H295R [6]): 426

C#Cc1cccc(Nc2ncnc3cc(OC)c(OCCCCCCC(=O)NO)cc23)c1
AC50 viability (CU-ACC1 [1]): 4.68 µM
AC50 viability (CU-ACC2 [2]): 2.95 µM
AC50 viability (NCI-H295R [3]): 4.68 µM
area under concentration-response curve (CU-ACC1 [4]): 407
area under concentration-response curve (CU-ACC2 [5]): 450
area under concentration-response curve (NCI-H295R [6]): 448

Cc1ccc(C(=O)Nc2cccc(C(F)(F)F)c2)cc1Nc1nc(-c2cccnc2)nc2c1cnn2C
AC50 viability (CU-ACC1 [1]): 23.5 µM
AC50 viability (CU-ACC2 [2]): 20.9 µM
AC50 viability (NCI-H295R [3]): 18.6 µM
area under concentration-response curve (CU-ACC1 [4]): 440
area under concentration-response curve (CU-ACC2 [5]): 515
area under concentration-response curve (NCI-H295R [6]): 477

NC(=O)c1cccc2c(NC(CN3CCC3)c3ccc(Cl)c(C(F)(F)F)c3)ncnc12 (stereo not given)
AC50 viability (CU-ACC1 [1]): 0.263 µM
AC50 viability (CU-ACC2 [2]): 0.332 µM
AC50 viability (NCI-H295R [3]): 1.18 µM
area under concentration-response curve (CU-ACC1 [4]): 266
area under concentration-response curve (CU-ACC2 [5]): 160
area under concentration-response curve (NCI-H295R [6]): 223

CN[C@@H]1C[C@H]2O[C@@](C)([C@@H]1OC)n1c3ccccc3c3c4c(c5c6ccccc6n2c5c31)C(=O)N[C@H]4O
AC50 viability (CU-ACC1 [1]): 0.762 µM
AC50 viability (CU-ACC2 [2]): 0.34 µM
AC50 viability (NCI-H295R [3]): 0.959 µM
area under concentration-response curve (CU-ACC1 [4]): 301
area under concentration-response curve (CU-ACC2 [5]): 209
area under concentration-response curve (NCI-H295R [6]): 269

C[C@@H]1O[C@@H](O[C@H]2C[C@@H](O)[C@]3(CO)[C@H]4[C@H](O)C[C@]5(C)[C@H](CC[C@]5(O)[C@@H]4CC[C@]3(O)C2)C/6=C/C(=O)OC6)[C@H](O)[C@H](O)[C@H]1O
AC50 viability (CU-ACC1 [1]): 0.0263 µM
AC50 viability (CU-ACC2 [2]): 0.0468 µM
AC50 viability (NCI-H295R [3]): 0.0934 µM
area under concentration-response curve (CU-ACC1 [4]): 215
area under concentration-response curve (CU-ACC2 [5]): 335
area under concentration-response curve (NCI-H295R [6]): 264

Cn1cc(CNCC2CCN(c3ncc(C(=O)NO)cn3)CC2)c2ccccc21
AC50 viability (CU-ACC1 [1]): 0.661 µM
AC50 viability (CU-ACC2 [2]): 0.417 µM
AC50 viability (NCI-H295R [3]): 0.661 µM
area under concentration-response curve (CU-ACC1 [4]): 325
area under concentration-response curve (CU-ACC2 [5]): 347
area under concentration-response curve (NCI-H295R [6]): 443

Cc1ccc(NC(=O)Nc2cc(C(F)(F)F)ccc2F)cc1Nc1ccc2c(c1)NC(=O)/C2=C\c1ccc[nH]1
AC50 viability (CU-ACC1 [1]): 14.8 µM
AC50 viability (CU-ACC2 [2]): 23.5 µM
AC50 viability (NCI-H295R [3]): 13.2 µM
area under concentration-response curve (CU-ACC1 [4]): 441
area under concentration-response curve (CU-ACC2 [5]): 506
area under concentration-response curve (NCI-H295R [6]): 476

Cc1ccc([S+](=O)([O-])Nc2cc(Cl)ccc2C(=O)Nc2nc(-c3ccccc3)cs2)cc1
AC50 viability (CU-ACC1 [1]): 9.34 µM
AC50 viability (CU-ACC2 [2]): 0.263 µM
AC50 viability (NCI-H295R [3]): 2.63 µM
area under concentration-response curve (CU-ACC1 [4]): 362
area under concentration-response curve (CU-ACC2 [5]): 306
area under concentration-response curve (NCI-H295R [6]): 340

OCCNC1CCCc2c1[nH]c1ccc(-c3ccccc3)cc21 (stereo not given)
AC50 viability (CU-ACC1 [1]): 20.9 µM
AC50 viability (CU-ACC2 [2]): 23.5 µM
AC50 viability (NCI-H295R [3]): 10.5 µM
area under concentration-response curve (CU-ACC1 [4]): 462
area under concentration-response curve (CU-ACC2 [5]): 526
area under concentration-response curve (NCI-H295R [6]): 456

CC(C)CNc1ccnc(NCc2csc(-c3ccccc3)n2)n1
AC50 viability (CU-ACC1 [1]): 3.72 µM
AC50 viability (CU-ACC2 [2]): 23.5 µM
AC50 viability (NCI-H295R [3]): 16.6 µM
area under concentration-response curve (CU-ACC1 [4]): 445
area under concentration-response curve (CU-ACC2 [5]): 591
area under concentration-response curve (NCI-H295R [6]): 531

CC(C)N(CCCNC(=O)Nc1ccc(C(C)(C)C)cc1)C[C@H]1O[C@@H](n2cc(Br)c3c(N)ncnc32)[C@H](O)[C@@H]1O
AC50 viability (CU-ACC1 [1]): 16.6 µM
AC50 viability (CU-ACC2 [2]): 16.6 µM
AC50 viability (NCI-H295R [3]): 16.6 µM
area under concentration-response curve (CU-ACC1 [4]): 438
area under concentration-response curve (CU-ACC2 [5]): 506
area under concentration-response curve (NCI-H295R [6]): 464

CCN1CCN(Cc2ccc(-c3cc4c(N[C@H](C)c5ccccc5)ncnc4[nH]3)cc2)CC1
AC50 viability (CU-ACC1 [1]): 23.5 µM
AC50 viability (CU-ACC2 [2]): 23.5 µM
AC50 viability (NCI-H295R [3]): 18.6 µM
area under concentration-response curve (CU-ACC1 [4]): 452
area under concentration-response curve (CU-ACC2 [5]): 534
area under concentration-response curve (NCI-H295R [6]): 492
